Laboratory results as given in patent publication US8450374B2, “Pan-antagonists for the androgen receptor and androgen receptor mutants associated with anti-androgen withdrawal” (priority 2009, dated 2013).
Positions count from the first letter of the chain named. “Also recorded” adds a separate entry of the source.

What was measured:
GFP-AR = molecular target: T1, GFP-AR (Homo sapiens, UniProt P10275); assay: Nuclear localization of GFP-AR in CV-1 cells; assay type: cell-based; conditions: 2 h after ligand addition; DHT 10 μM, other ligands 100 μM
T1 construct: expressed in transfected cells; host or cells: CV-1 monkey kidney cells
T1 sequence (P10275 1-920): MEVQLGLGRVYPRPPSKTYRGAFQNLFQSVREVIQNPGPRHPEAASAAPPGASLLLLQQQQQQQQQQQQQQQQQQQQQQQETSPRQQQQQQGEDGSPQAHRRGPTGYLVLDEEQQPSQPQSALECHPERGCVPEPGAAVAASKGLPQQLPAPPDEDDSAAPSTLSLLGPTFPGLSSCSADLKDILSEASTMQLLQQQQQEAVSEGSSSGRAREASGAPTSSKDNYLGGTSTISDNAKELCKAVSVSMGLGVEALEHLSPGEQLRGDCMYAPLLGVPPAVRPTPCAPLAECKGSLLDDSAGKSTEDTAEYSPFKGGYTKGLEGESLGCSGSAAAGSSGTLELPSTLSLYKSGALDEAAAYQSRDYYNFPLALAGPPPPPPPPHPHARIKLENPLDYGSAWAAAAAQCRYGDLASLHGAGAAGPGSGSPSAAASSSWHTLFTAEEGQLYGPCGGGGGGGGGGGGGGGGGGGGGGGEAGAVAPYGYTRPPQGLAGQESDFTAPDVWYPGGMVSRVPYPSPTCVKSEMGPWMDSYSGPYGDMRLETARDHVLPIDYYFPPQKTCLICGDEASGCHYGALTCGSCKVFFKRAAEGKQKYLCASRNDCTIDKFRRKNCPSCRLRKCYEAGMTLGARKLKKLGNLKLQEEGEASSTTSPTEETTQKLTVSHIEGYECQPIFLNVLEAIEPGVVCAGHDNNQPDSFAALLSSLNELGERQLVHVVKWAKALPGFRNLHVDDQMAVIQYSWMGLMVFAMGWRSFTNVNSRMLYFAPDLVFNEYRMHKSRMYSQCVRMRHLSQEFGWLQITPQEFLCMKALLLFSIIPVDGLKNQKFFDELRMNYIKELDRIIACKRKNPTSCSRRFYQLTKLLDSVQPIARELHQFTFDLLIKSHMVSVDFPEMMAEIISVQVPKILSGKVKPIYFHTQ
Description: Nuclear localization of GFP-AR in CV-1 cells grown in 10% charcoal stripped CCS/DMEM.
CV-1 monkey kidney cells were seeded in a 12 well plate at a concentration of 50,000 cells per well. After 24 h, the cells were transfected with GFP-AR in a solution of Opti-MEM and Lipofectamine 2000, and incubated overnight. The cells were then imaged on a fluorescent microscope, followed by the addition of 6 respective ligands, and control (DMSO vehicle). […] The cells were incubated for two hours and again imaged. The cells were fixed, and stained (DAPI) to image the nucleus.

mouse prostates = assay: Prostate apoptosis by TUNEL after IP PAN52; assay type: in vivo, Male C57Bl/6 mice; conditions: 25 mg/kg/day IP, day 3 and day 5, TUNEL
Description: FIG. 17. Quantification of apoptotic cells from prostate tissues where mice were treated short-term by intraperitoneal (IP) injection with PAN52 at 25 mg/kg/day versus vehicle control for either 3 days or 5 days (right). Single 20× magnification fields from each of four lobes of mouse prostate glands were counted in each mouse.

[1] = molecular target: T2, AR protein levels in LNCaP cells (Homo sapiens, UniProt P10275, T878A); assay: AR downregulation by western blot, LNCaP cells; assay type: cell-based; conditions: LNCaP cells, 10, 50 or 100 μM, 24 h
T2 construct: endogenous in cells; host or cells: LNCaP
T2 sequence (P10275 1-920 T878A): T1 sequence (P10275 1-920) with T878A
Description: Compounds that down regulate the levels of AR in prostate cancer may be effective in androgen dependent cells and anti-androgen resistant cells that over express the androgen receptor. […] LNCaP or CRW22RV1 cells were treated with 10 μM, 50 μM or 100 μM compound for 24 h. Cells were harvested and lysed. Cell lysates were analyzed by SDS-PAGE followed by immunostaining with anti-AR and anti-lamin antibodies (see FIGS. 15 and 16).

[2] = molecular target: T3, AR ligand-binding domain (LBD) (Homo sapiens, UniProt P10275); assay: Coactivator peptide recruitment by TR-FRET; assay type: biochemical; conditions: read after 2 h and 4 h incubation
T3 construct: purchased Invitrogen PV8431
T3 sequence (P10275 669-900 limits assumed): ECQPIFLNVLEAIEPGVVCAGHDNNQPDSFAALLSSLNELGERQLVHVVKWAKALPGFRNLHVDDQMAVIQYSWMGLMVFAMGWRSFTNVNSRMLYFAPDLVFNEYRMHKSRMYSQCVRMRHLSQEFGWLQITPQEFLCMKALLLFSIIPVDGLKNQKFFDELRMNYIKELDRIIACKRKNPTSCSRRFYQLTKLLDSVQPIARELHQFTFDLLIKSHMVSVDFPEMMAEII
Description: Briefly, serial dilutions of ligand stocks solutions (in DMSO) were made in TR-FRET coregulator buffer A in a 384 well plate. To each well was added a 4×-stock solution of the AR-LBD followed by a 4× stock solution of fluorescein D-11 peptide and lanthanide-labeled antiGST antibody. The plates were read by time resolved fluorescence after 2 h and 4 h incubation.

LNCaP cells = assay: LIVE/DEAD cytotoxicity assay; assay type: cell-based; conditions: 1 μM, nine days, RPMI + 10% DCC-FBS
Description: FIG. 1. […] The pictures were taken after nine days of incubation in RPMI supplemented with 10% DCC-FBS plus indicated antiandrogens. B and C. Quantitative analysis of images.
Media was changed every 3 days and floating cells were centrifuged down and reseeded into dish. LIVE/DEAD reagent was added after 9 days culturing. Live cells (indicated by green fluorescence) were counted and compared to the number of dead cells (red).

With `CN(C)CCCOc1cccc(-c2ccccc2S(=O)(=O)CC(C)(O)C(=O)Nc2ccc(C#N)c(C(F)(F)F)c2)c1` (centres unmarked) [PAN52] the “Nuclear localization of GFP-AR fluorescence” value (GFP-AR) was “little to no nuclear localization”, the “Apoptosis in prostate compared to control” value (mouse prostates) was “increase in apoptosis; also recorded: induced rapid apoptosis” and the “AR protein levels relative to bicalutamide, DHT or DMSO controls” value [1] was “downregulation of AR protein levels”. For the same compound, the “Coactivator peptide (D11, FXXLF) association with AR(LBD)” value [2] was “do not show coactivator association” and the “Viable cells (green) in fluorescence images” value (LNCaP cells) was “almost all cells”.
